Results: publication PMC5378956, “Inhibition of delta-secretase improves cognitive functions in mouse models of Alzheimer's disease” (Nature Communications, 2017)
Where two headings read alike, the source gives them in different places.

Experiments:
δ-secretase [1] = target: T1, δ-secretase (Homo sapiens, UniProt Q99538); assay: IC50 assay with purified recombinant δ-secretase (AEP), substrate Cbz-Ala-Ala-Asn-AMC; format: biochemical
T1 construct: tested with purified active δ-secretase, IC50 values for the top 8 candidates were calculated; purchased Sino Biological (Beijing, China)
T1 sequence (Q99538 18-323 limits assumed): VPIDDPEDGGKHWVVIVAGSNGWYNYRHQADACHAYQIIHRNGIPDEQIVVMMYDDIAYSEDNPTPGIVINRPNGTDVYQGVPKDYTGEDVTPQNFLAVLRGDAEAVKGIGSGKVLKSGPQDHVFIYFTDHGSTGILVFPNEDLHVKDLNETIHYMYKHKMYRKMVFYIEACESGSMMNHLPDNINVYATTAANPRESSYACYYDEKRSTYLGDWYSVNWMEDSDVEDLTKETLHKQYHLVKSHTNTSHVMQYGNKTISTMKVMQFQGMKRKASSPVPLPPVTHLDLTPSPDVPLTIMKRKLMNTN
Experimental: δ-secretase – 50 nM enzyme was pre-incubated with inhibitor in assay buffer (50 mM Sodium Citrate pH 5.5, 0.1% CHAPS, 60 mM Na2HPO4, 1 mM EDTA) for 10 min at 37 °C. The reaction was initiated on addition of 10 μM Cbz-Ala-Ala-Asn-AMC (Bachem).
(§1) To determine the IC50 values of the compounds towards δ-secretase, cathepsin-S, cathepsin-L, caspase-3 and caspase-8, purified recombinant enzyme was incubated in appropriate assay buffers in the presence of increasing concentrations of inhibitors. The formation of fluorescent product was monitored in duplicate reactions and the data were fit to appropriate equations to calculate the IC50 values.

cathepsin-S = target: T2, cathepsin-S (Homo sapiens, UniProt P25774); assay: IC50 assay with recombinant cathepsin-S; format: biochemical; conditions: for IC50: mean±s.d.
T2 construct: purchased Athens Research and Technology (Athens, GA)
T2 sequence (P25774 115-331, species assumed): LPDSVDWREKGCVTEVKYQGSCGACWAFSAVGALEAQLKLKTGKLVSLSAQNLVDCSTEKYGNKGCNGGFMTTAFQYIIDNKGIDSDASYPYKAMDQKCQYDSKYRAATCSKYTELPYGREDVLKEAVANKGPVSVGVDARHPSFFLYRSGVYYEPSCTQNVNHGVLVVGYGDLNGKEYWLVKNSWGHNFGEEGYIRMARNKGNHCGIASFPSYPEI
Experimental: Cathepsin-S – 100 nM enzyme was pre-incubated with inhibitor in assay buffer (100 mM NaH2PO4 pH 6.5, 100 mM NaCl) for 10 min at 37 °C. The reaction was initiated on addition of 25 μM substrate (Boc-Val-Leu-Lys-AMC (Bachem).
as §1

cathepsin-L = cathepsin-L (Homo sapiens, UniProt P07711); assay: IC50 assay with cathepsin-L; format: biochemical; conditions: for IC50: mean±s.d.
Chain of cathepsin-L (P07711 114-333, species assumed): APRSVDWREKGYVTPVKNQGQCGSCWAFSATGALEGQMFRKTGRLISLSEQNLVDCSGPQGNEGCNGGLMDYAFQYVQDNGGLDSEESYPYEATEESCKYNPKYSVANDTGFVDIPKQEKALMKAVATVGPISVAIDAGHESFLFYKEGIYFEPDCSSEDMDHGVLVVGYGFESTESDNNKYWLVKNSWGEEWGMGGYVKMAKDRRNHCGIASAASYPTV
Experimental: Cathepsin-L – 100 nM enzyme was pre-incubated with inhibitor in assay buffer (100 mM Sodium Acetate pH 5.5, 1 mM EDTA) for 10 min at 37 °C. The reaction was initiated on addition of 25 μM substrate (D-Val-Leu-Lys-AMC (Bachem).
as §1

caspase-3 = target: T3, caspase-3 (Homo sapiens, UniProt P42574); assay: IC50 assay with recombinant caspase-3; format: biochemical; conditions: for IC50: mean±s.d.
T3 construct: purchased Millipore (Billerica, MA)
T3 sequence (P42574 29-175 limits assumed): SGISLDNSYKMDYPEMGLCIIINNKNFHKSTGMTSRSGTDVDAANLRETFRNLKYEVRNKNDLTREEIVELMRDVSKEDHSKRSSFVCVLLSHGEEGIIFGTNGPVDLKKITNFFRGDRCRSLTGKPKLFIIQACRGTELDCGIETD
T3 sequence (P42574 176-277 limits assumed): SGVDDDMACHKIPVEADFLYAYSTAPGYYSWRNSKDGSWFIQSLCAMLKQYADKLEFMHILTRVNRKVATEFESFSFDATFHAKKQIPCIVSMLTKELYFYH
Experimental: (§2) Caspase-3 and 8 – The enzyme was pre-incubated with inhibitor in assay buffer (100 mM HEPES pH 7.4, 0.1% CHAPS, 10% Sucrose) for 10 min at 37 °C.
as §1

caspase-8 = target: T4, caspase-8 (Homo sapiens, UniProt Q14790); assay: IC50 assay with recombinant caspase-8; format: biochemical; conditions: for IC50: mean±s.d.
T4 construct: purchased Millipore (Billerica, MA)
T4 sequence (Q14790 217-374 limits assumed, species assumed): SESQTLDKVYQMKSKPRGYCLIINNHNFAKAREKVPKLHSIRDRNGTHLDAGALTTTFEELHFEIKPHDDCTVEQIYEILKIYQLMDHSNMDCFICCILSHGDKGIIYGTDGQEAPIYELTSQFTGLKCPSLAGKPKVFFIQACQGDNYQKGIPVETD
T4 sequence (Q14790 385-479 limits assumed, species assumed): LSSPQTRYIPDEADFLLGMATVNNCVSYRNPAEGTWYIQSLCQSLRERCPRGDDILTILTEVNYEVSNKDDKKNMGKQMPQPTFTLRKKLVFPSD
Experimental: as §2, §1

δ-secretase [2] = target: T1, δ-secretase; assay: DTT and L-cysteine reversibility of δ-secretase inhibition; format: biochemical; conditions: 10 mM DTT or L-cysteine, inhibitor at its IC50
[3] = target: T5, δ-secretase in Pala cells (Homo sapiens, UniProt Q99538); assay: δ-secretase inhibition in intact Pala cells; conditions: for IC50 towards δ-secretase in Pala cells: intact cells, 2 h incubation, mean±s.d.
T5 sequence (Q99538 18-433): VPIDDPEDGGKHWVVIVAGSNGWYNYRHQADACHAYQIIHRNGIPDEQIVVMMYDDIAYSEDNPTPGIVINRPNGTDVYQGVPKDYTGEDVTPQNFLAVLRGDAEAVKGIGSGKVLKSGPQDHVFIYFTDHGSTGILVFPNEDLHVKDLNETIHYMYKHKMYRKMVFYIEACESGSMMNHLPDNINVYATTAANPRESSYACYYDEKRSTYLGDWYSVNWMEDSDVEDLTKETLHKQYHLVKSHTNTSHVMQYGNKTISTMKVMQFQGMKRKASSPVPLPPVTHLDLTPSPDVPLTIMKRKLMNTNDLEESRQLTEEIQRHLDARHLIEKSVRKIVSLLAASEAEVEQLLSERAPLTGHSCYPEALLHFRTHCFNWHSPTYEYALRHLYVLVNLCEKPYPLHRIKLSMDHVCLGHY

HepG2 cells = assay: COMET assay and micronucleus assay in HepG2 cells; format: cell-based, human; conditions: 50 μM, 24 h
Experimental: Human hepatocellular carcinoma HepG2 cells were used to determine the genotoxicity of the compounds. The Comet Assay (single cell gel electrophoresis) was performed according to the protocol provided in the Trevigen Kit (4250-050-K). Briefly, cells were pre-treated for 24 h with vehicle control or 50 μM compounds. Cells were harvested, embedded in low-melt agarose and submerged in Lysis Buffer for 45 min at 4 °C. After incubation in Alkaline Unwinding Solution (300 mM NaOH, 1 mM EDTA) for 20 min, the cells were subjected to electrophoresis in Alkaline Unwinding Solution at 300 mA for 30 min. Slides were washed with 70% ethanol, dried and stained with SYBR Green for 30 min at room temperature. Nicked DNA was measured as percentage of tail DNA. One hundred comets were scored for each sample[39].
HepG2 cells were treated with vehicle or 50 μM compound for 24 h. Cells were washed with PBS, followed byincubation at a ratio of 1:19 in a hypotonic solution (75 mM KCl/0.9% NaCl) for 10 min at 37 °C. Next, the cells were fixed with methanol:glacial acetic acid (3:1) for 15 min at 37 °C, then rinsed and dried. Cells were stained with DAPI (2 μg ml^−1) for 30 min in the dark at room temperature, rinsed with water, dried and mounted with glycerol. One thousand cells per dish were analysed for each experiment; three independent experiments were performed.

Caco-2 monolayer = Caco-2 monolayer permeability screen; conditions: 10 µM, 2 h
Experimental: Supplementary Table 3: Caco-2 permeability and BBB-PAMPA permeability
For CaCo-2 permeability assay, cells were incubated with 10 µM of these reagents in
buffers for 2 h, and the receiver side buffer is removed for analysis by LC/MS/MS. Efflux […]
LLOQ: Lower Limit of Quantification; Papp: apparent permeability.

CYP3A4 = CYP3A4 (Homo sapiens, UniProt P08684); assay: CYP inhibition screening in microsomes; conditions: pH 7.4, probe midazolam
Chain of CYP3A4 (P08684 whole entry): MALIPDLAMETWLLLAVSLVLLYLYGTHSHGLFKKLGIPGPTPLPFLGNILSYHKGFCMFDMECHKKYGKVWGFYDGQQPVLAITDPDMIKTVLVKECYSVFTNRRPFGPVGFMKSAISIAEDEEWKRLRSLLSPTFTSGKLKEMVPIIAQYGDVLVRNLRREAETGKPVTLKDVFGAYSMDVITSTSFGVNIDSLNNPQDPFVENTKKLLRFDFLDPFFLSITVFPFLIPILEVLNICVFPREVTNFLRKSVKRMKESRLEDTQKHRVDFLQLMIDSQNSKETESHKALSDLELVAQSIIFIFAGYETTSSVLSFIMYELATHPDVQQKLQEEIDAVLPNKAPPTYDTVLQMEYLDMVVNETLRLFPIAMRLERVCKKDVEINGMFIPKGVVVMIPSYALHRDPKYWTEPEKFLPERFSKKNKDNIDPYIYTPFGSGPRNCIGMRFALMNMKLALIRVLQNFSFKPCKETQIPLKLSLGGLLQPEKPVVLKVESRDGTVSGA

CYP3A = assay: CYP inhibition screening in microsomes; conditions: human, pH 7.4, probe testosterone
CYP2C9 = CYP2C9 (Homo sapiens, UniProt P11712); assay: CYP inhibition screening in microsomes; conditions: pH 7.4
Chain of CYP2C9 (P11712 whole entry): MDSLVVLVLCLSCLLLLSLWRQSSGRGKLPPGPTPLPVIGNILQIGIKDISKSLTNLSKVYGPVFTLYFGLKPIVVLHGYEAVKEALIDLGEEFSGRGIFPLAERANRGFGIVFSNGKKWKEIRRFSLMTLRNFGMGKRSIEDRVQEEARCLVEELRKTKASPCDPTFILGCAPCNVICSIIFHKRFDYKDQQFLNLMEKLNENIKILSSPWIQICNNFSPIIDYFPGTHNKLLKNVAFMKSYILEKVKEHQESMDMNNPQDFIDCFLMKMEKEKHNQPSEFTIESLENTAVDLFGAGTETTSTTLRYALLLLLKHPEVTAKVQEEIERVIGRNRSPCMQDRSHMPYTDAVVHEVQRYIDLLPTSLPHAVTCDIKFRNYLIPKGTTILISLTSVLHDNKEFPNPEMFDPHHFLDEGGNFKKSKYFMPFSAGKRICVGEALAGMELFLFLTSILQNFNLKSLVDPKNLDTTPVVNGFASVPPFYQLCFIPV

CYP2D6 = CYP2D6 (Homo sapiens, UniProt P10635); assay: CYP inhibition screening in microsomes; conditions: pH 7.4
Chain of CYP2D6 (P10635 whole entry): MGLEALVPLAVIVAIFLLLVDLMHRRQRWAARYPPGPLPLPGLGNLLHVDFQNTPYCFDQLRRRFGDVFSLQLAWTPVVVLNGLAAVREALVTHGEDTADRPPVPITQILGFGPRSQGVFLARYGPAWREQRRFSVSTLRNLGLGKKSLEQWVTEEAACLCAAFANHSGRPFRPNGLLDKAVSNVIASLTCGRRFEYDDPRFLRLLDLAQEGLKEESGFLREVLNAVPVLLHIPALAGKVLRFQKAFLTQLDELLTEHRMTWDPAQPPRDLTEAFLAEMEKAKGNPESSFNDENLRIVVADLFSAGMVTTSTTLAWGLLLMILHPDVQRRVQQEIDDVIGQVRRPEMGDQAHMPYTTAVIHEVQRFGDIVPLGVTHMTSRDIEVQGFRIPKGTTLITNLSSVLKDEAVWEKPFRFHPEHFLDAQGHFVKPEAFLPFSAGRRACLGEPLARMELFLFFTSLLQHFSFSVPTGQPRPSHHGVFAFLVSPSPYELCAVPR

CYP2C19 = CYP2C19 (Homo sapiens, UniProt P33261); assay: CYP inhibition screening in microsomes; conditions: pH 7.4
Chain of CYP2C19 (P33261 whole entry): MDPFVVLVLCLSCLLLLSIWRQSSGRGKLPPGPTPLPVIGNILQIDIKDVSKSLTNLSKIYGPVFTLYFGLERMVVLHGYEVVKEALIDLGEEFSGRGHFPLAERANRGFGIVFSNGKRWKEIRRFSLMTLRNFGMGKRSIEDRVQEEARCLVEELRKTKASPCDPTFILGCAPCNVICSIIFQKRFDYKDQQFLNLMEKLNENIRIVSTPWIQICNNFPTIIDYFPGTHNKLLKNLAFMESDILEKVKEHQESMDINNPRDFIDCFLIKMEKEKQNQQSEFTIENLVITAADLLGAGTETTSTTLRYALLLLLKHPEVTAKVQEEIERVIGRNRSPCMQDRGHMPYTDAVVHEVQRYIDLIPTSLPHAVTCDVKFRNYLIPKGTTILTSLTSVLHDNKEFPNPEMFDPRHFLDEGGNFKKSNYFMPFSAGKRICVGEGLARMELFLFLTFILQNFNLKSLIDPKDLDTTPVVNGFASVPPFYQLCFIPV

CYP1A2 = target: T6, CYP1A2 (Homo sapiens, UniProt P05177); assay: CYP inhibition screening in microsomes; conditions: pH 7.4
T6 sequence (P05177 1-516): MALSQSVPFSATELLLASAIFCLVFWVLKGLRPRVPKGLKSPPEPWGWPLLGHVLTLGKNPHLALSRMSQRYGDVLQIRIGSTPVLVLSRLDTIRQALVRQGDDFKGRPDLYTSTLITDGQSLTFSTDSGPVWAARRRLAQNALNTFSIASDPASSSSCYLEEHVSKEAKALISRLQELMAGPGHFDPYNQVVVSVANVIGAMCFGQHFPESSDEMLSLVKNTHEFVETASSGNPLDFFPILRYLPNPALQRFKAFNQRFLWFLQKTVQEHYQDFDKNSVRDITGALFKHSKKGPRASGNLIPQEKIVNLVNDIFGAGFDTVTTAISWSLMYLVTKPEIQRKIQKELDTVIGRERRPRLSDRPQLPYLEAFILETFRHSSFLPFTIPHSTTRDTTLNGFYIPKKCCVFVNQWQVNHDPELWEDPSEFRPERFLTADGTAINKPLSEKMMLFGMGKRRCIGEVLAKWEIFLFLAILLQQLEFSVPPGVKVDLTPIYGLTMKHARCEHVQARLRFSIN

[4] = purified recombinant enzyme, mean±s.d., read-out: IC50 AEP (δ-secretase)

Row | IC50 (δ-secretase [1]; [4]) [µM] | IC50 (cathepsin-S) [µM] | IC50 (cathepsin-L) [µM] | IC50 (caspase-3) [µM] | IC50 (caspase-8) [µM] | IC50 [3] [µM] | IC50 towards δ-secretase in Pala cells [3] | SMILES | recovery of δ-secretase activity on addition of reducing agents (δ-secretase [2]) | also measured
1 | 0.71 ± 0.05 | > 200 | 3.79 ± 0.29 | 44.6 ± 5.01 | > 200 | 7.86 ± 5.67 | slightly larger IC50 values | N#CSc1cnc(N)s1 [compound 10] | regained a substantial amount of activity | –
2 | 0.21 ± 0.01 | > 100 | > 100 | > 100 | > 100 | – | – | CN(C)c1ccc(N2C(=O)C=CC2=O)cc1 [compound 22] | – | genotoxicity (COMET and micronucleus assay) (HepG2 cells): show genotoxicity
3 | 2.37 | > 100 | > 100 | 15.4 ± 7.04 | > 100 | 0.29 ± 0.21 | – | CCN(CC)c1ccc(CN2CCc3nc(C)[nH]c(=O)c3C2)c(OC)c1 [compound 64] | – | selectivity for δ-secretase compared to cathepsin-S (cathepsin-S): over 40 fold; selectivity for δ-secretase compared to cathepsin-L (cathepsin-L): over 40 fold; selectivity for δ-secretase compared to caspase-3 (caspase-3): about 6 fold; selectivity for δ-secretase compared to caspase-8 (caspase-8): over 40 fold; A->B Papp (Caco-2 monolayer): < LLOQ; B->A Papp (Caco-2 monolayer): < LLOQ; inhibition at 10 min, 3 µM (CYP3A4): 0.6%; inhibition at 10 min, 10 µM (CYP3A4): 10.1%; inhibition at 10 min, 3 µM (CYP3A): 1.5%; inhibition at 10 min, 10 µM (CYP3A): -0.1%; inhibition at 10 min, 3 µM (CYP2C9): 4.6%; inhibition at 10 min, 10 µM (CYP2C9): 7.9%; inhibition at 10 min, 3 µM (CYP2D6): 34.6%; inhibition at 10 min, 10 µM (CYP2D6): 58.3%; inhibition at 10 min, 3 µM (CYP2C19): 31.6%; inhibition at 10 min, 10 µM (CYP2C19): 20.4%; inhibition at 10 min, 3 µM (CYP1A2): 23.7%; inhibition at 10 min, 10 µM (CYP1A2): 22.2%
4 | 0.13 ± 0.09 | > 200 | 5.66 ± 0.36 | > 200 | 28.7 ± 11.2 | 1.57 ± 0.14 | slightly larger IC50 values | Sc1nnc(Nc2ccccc2)s1 [compound BB1] | regained a substantial amount of activity | ligand efficiency (δ-secretase [1]): 0.75; IC50 (δ-secretase [1]; purified active δ-secretase, read-out: IC50 / potency toward δ-secretase): ~0.13 µM
